From patent US12678472B2, “Method for selective recovery of hydrophobic compounds” (priority 2019, dated 2026)

Columns and labels:
[1] = Capture of target molecule from solution by insoluble cross-linked cyclodextrin polymer (batch slurry, supernatant measured after filtration); details: Example 9: 2 mg/mL CBD in 1:1 ethanol:water, 10:1 polymer:CBD
Protocol: A standard protocol was followed in all Examples with the variances from the standard protocol as described in each Example. The standard protocol included a plurality of steps. A mass of CBD was dissolved in ethanol to form a stock solution. A reference sample of the stock solution was diluted with ethanol to obtain a target CBD or other target molecule concentration for a reference measurement. A reaction sample was taken from the remaining stock solution. A cross-linked polysaccharide was combined with the reaction sample in a ratio relative to the CBD or other target molecule concentration present in the reaction sample (by mass) as specified in Examples. The cross-linked polymer is HDI-linked cyclodextrin prepared with a ratio of 8:1 HDI to cyclodextrin.
Water is combined with the reaction sample until the reaction sample reaches a target CBD or other target molecule concentration, and a target ethanol to water ratio. The reaction mixture including the water is filtered at a cutoff size of between 75 μm to 4,000 μm aperture size, or exposed to a magnetic field with a neodymium magnet through the wall of a flask, to retrieve the cross-linked polymer bound with CBD or other target molecule concentration. Once retrieved, the cross-linked polymer is flushed with a dissociation solvent for dissolving the target molecule. […]

[2] = Solubility of CBD in ethanol:water mixtures

## C=C(C)[C@@H]1CCC(C)=C[C@H]1c1c(O)cc(CCCCC)cc1O [CBD, cannabidiol]
[1]
  time to capture plateau: about 5 minutes
[2]; 40:60 EtOH:H2O, 2 mg/mL CBD
  solubility of CBD: not fully dissolved
[2]; 45:56 EtOH:H2O, 2 mg/mL CBD
  solubility of CBD: cloudy
[2]; 50:50 EtOH:H2O, EtOH added first then H2O
  solubility of CBD: dissolves
[2]; Example 13: 6 mg/mL in 1:1 EtOH:H2O with sonication and heating
  solubility of CBD: did not dissolve
[2]; Example 17: CBD in 3:7 EtOH:H2O
  percent of the CBD not in solution: Ten
